In PMC5711494, “Sterol methyltransferase a target for anti-amoeba therapy: towards transition state analog and suicide substrate drug design” (Journal of Lipid Research, 2017):

Assays:
[1] = system: Ac24-SMT; test: Covalent labeling of Ac24-SMT with DHL and 3H-SAM, SDS-PAGE gel slice counting; assay type: binding, Acanthamoeba castellanii; conditions: 45 min, 35°C, SDS-PAGE gel slices
Procedure: For 24-SMT labeling, partially pure recombinant enzyme obtained from 0.25 salt gradient fraction after Q-chromatography and desalted with buffer exchange (as reported in reference) was generated as a reference specimen of cloned SMT migrating at ∼39 kDa indicated by a protein ladder (Bio-Rad). Protein was stained with Coomassie Brilliant Blue R 250. […] After filtration and concentration, 22 µg total protein was loaded on 12% SDS-PAGE gel against a protein ladder (Bio-Rad) that ranged from 15 to 100 kDa. Next, five bands were excised from the gel corresponding to approximate molecular masses that range between 1) 15–25 kDa, 2) 25–35 KDa, 3) 35–45 kDa, 4) 45–55 kDa, and 5) 55–75 kDa, placed into a vial of 50% hydrogen peroxide, and left overnight at 60°C for digestion ([29]). To these vials was added scintillant and the radioactivity (^3H in dpm) measured by liquid scintillation counting.

[2] = system: Ac24-SMT; test: Time-dependent inactivation of Ac24-SMT (Kitz and Wilson plot); assay type: biochemical, Acanthamoeba castellanii
Procedure: To show time-dependent inactivation, experiments were performed with a 100,000 g supernatant fraction containing the recombinant Ac24-SMT in two major steps. First, a preincubation experiment was established; to a 9 ml test tube containing DHL at the test concentrations (varied between 0 and 20 µM), 2.4 mg of total protein (ca. 160 µg SMT), 1.5 ml buffer, and a fixed concentration of SAM (100 µM) were added. The incubation was allowed to incubate for up to 20 min at 35°C. Second, at the time indicated, aliquots (20 µl) of the preincubation preparation were placed in a precooled (dry ice-ethanol) test tube to prevent catalysis. The frozen samples were then individually thawed and filtered three times with phosphate buffer to remove excess unbound inhibitor using Amicon ultracentrifugation filters. The remaining enzyme activity in each sample was determined by assaying each at saturating cycloartenol concentration (100 µM) and [methyl-^3H3] SAM (100 µM; 0.6 µC) under standard assay conditions for 1 h. The logarithmic percentage of remaining enzyme activity was plotted against the incubation time of the enzyme-inhibitor mixture to determine the half-life (T1/2) of inactivation. […] The point of intersection with the ordinate is the T1/2 at saturation from which the kinact can be calculated whereas the intercept along the X-axis gives the −1/Ki from which the Ki can be calculated.

[3] = target: Ac28-SMT (sterol 28-methyltransferase, SMT2) (Acanthamoeba castellanii, UniProt L8GKC5); test: Inhibition of recombinant Ac28-SMT assayed with native substrate 24(28)-methylene lophenol and [methyl-3H3]SAM; assay type: biochemical
Chain of Ac28-SMT (sterol 28-methyltransferase, SMT2) (L8GKC5 entry or part of it): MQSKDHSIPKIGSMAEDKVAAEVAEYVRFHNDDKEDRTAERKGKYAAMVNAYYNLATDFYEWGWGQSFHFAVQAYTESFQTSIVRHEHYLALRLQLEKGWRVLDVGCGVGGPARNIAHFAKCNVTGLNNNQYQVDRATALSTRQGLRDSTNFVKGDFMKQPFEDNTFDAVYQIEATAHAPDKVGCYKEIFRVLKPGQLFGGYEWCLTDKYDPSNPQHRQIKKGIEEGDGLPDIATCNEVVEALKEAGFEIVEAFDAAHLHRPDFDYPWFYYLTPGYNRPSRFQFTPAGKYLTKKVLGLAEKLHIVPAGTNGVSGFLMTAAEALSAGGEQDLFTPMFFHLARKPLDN
Procedure: The SMT constructs were transformed into competent BL21(DE3) cells and transformants selected against 100 µg/ml ampicillin. Expression of the SMT constructs and partial purification of the recombinant proteins followed the procedure described previously ([19]). Briefly, a single colony for 24-SMT and 28-SMT were grown overnight in an orbital shaker (250–300 rpm) at 37°C in Luria broth containing ampicillin and then reinoculated in fresh medium at 1 in 10 dilution. […] In one tube, cells were induced by addition of isopropyl thio-galactoside at a final concentration of 1 mM and in the other tube, were un-induced. Cells were harvested 2 and 4 h after induction and an equal number of cells (as calculated by OD @600 nm) from induced (+) and un-induced (−) cultures were boiled with 1X Laemmli’s buffer and analyzed by SDS-PAGE (12%). […] Total protein concentrations were determined by Bradford dye-binding procedure with bovine γ-globulin as standard. […] Incubation mixtures were saponified with methanolic potassium hydroxide and extracted with hexane (3 × 1 ml) and concentrated to dryness providing the nonsaponifiable lipid fraction; radioactivity was determined by liquid scintillation counting. […] Controls containing radioactive SAM and no sterol used to background subtract radioactivity in these treatments was less than 500 dpm. […]

[4] = system: Acanthamoeba castellanii trophozoites (strain ATCC 30010); test: Ac trophozoite growth inhibition and minimum amoebicidal concentration (trypan blue exclusion); assay type: cell-based; conditions: 48 h incubation
Procedure: Ac strain ATCC 30010 was inoculated (1 × 10^4 cells/ml) into tissue culture T-25 ml flasks, prepared with ATTC media 712 and cultured axenically in 5 ml medium at 25°C. Continuous cultures populated by trophozoites ([…]; the remaining cells were cysts) was maintained by sub-culturing 4–5 day growth arrested cells (1 × 10^6 cells/ml) into fresh medium. Steroidal inhibitor and azole susceptibility assays were performed in 24-well (4 × 6) microtiter plates (3 ml total). Trophozoite assay conditions and preparation of stock solutions made to 1 μg/10 μl and 1 μg/100 μl in DMSO through serial dilution to achieve final inhibitor concentrations of 64, 32, 16, 8, 4, 2, 1, 0.5, 0.25, 0.125, 0.0625, and 0.03125 µg/ml in 1% DMSO as reported previously for voriconazole incubated with Ac ([25]). Growth curves to evaluate treated trophozoites were initiated with 1 × 10^6 cells/ml and incubated for 48 h. Cell number was calculated with the use of a hemocytometer. The percentage of viable trophozoites following exposure to different concentrations of inhibitors was determined by the standard trypan blue exclusion method. Cells stained blue were considered nonviable. […] The IC50 of inhibitors against trophozoite growth was evaluated using GraphPad Prism with default setting (GraphPad Software Inc., CA).

Question: How did the “radioactivity associated with protein band of ∼39 kDa” value [1] turn out when CC(CCC=C1CC1)C1CC[C@@]2(C)C3=C(CCC12C)C1(C)CCC(O)C(C)(C)C1CC3 (stereo partly shown) [DHL, 26,27-dehydrolanosterol] was run?
Answer: < 90%

Question: And the “partition ratio (kcat/kinact)” value ([2]; C26 methyl monol product per inactivation event, 24-SMT)?
Answer: ~1

Question: What about the “kinact (maximum rate of inactivation) of Ac24-SMT” value ([2]; preincubation with SAM 100 µM, 35°C) of the same compound?
Answer: ~0.4 min⁻¹

Question: What about the “kinact/Ki against 28-SMT” value [3] of the same compound?
Answer: effectively zero

Question: What about the Ki ([3]; read-out: Ki against 28-SMT (competitive inhibitor), assayed with natural substrate) of the same compound?
Answer: 54 µM

Question: And the “MAC (complete inhibition of growth, minimum amoebicidal concentration)” value [4]?
Answer: 15 µM

Question: What about the IC50 ([4]; Acanthamoeba castellanii, ATCC30010, Ac trophozoites) of the same compound?
Answer: 6 µM
